Experimental findings from ChEMBL document CHEMBL6153089, “Design, Synthesis, and Biological Evaluation of Thieno[3,2-d]pyrimidine Derivatives as the First Bifunctional PI3Kδ Isoform Selective/Bromodomain and Extra-Terminal Inhibitors” (J Med Chem, 2025) are described below.

Broadly, the inhibition is the relative decrease from the control value, in per cent. A word on the IC50: it is the concentration that gives 50% inhibition.

Structures are written as SMILES.

Experiment [1] concerns the target T1, Bromodomain-containing protein 4 (Homo sapiens, UniProt O60885). Briefly: Inhibition of His-tagged BRD4-BD1 (unknown origin) at 10 nM incubated for 30 mins by Alphascreen assay relative to control. (Bead proximity is the source of the signal in Alpha formats.)
The test system of experiment [2] is SUD4. The experiment in a line: Antiproliferative against activity human SU-DHL-4 cells assessed as inhibition of cell growth incubated for 72 hrs by Celltiter-luminescence analysis. The format is functional, cell-based. Particulars: SU-DHL-4, 72 h.
Experiment [3] has as its target T1, Bromodomain-containing protein 4. Briefly: Inhibition of His-tagged BRD4-BD1 (unknown origin) incubated for 30 mins in presence of ATP by Alphascreen assay.
Experiment [4] concerns SU-DHL-6. The experiment in a line: Antiproliferative against activity human SU-DHL-6 cells assessed as inhibition of cell growth incubated for 72 hrs by Celltiter-luminescence analysis. It counts as functional, cell-based. Particulars: SU-DHL-6, 72 h.
The target of experiment [5] is PI3-kinase p110-delta/p85-alpha (Homo sapiens, UniProt O00329). The experiment in a line: Inhibition of p110delta/p85alpha (unknown origin) incubated for 2 hrs in presence of ATP by ADP-kinaseGlo reagent based assay. The format is protein-complex assay. On the technique in general: In Kinase-Glo more light means more ATP remaining.
For experiment [6], the target named is PI3-kinase p110-delta/p85-alpha (Homo sapiens) (UniProt P27986+O00329). The experiment in a line: Inhibition of p110delta/p85alpha (unknown origin) at 100 nM incubated for 2 hrs in presence of ATP by ADP-kinaseGlo reagent based assay relative to control. The format is protein-complex assay.
The test system of experiment [7] is SU-DHL-6. Briefly: Antiproliferative against activity human SU-DHL-6 cells assessed as inhibition of cell growth incubated for 72 hrs in presence of 10:1 PI-3065:compound by Celltiter-luminescence analysis. The format is functional, cell-based. The settings on record: SU-DHL-6, 72 h.
In experiment [8] the test system is SUD4. Briefly: Antiproliferative against activity human SU-DHL-4 cells assessed as inhibition of cell growth incubated for 72 hrs in presence of 10:1 PI-3065:compound by Celltiter-luminescence analysis. The settings on record: SU-DHL-4, 72 h. The format is functional, cell-based.

PI3-kinase p110-delta/p85-alpha, sequence (P27986 whole entry): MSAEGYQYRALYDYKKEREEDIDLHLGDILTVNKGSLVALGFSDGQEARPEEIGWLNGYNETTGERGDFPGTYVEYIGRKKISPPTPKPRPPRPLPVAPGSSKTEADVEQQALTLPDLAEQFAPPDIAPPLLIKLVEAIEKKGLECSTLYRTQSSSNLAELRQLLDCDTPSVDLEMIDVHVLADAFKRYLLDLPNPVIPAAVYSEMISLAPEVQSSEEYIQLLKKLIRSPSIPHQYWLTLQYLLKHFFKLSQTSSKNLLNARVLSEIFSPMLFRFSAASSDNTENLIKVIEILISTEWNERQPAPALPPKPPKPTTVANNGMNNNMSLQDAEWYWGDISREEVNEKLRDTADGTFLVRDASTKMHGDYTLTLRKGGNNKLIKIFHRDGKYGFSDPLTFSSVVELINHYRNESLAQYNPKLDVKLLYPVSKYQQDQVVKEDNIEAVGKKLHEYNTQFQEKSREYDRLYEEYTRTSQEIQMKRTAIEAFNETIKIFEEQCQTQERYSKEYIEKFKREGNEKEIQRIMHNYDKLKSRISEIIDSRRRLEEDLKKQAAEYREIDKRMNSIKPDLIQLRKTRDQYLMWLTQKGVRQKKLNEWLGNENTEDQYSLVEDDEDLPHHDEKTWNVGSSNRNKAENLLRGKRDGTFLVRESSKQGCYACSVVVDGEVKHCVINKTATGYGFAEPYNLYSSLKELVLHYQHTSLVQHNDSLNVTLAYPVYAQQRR
PI3-kinase p110-delta/p85-alpha, sequence (O00329 whole entry): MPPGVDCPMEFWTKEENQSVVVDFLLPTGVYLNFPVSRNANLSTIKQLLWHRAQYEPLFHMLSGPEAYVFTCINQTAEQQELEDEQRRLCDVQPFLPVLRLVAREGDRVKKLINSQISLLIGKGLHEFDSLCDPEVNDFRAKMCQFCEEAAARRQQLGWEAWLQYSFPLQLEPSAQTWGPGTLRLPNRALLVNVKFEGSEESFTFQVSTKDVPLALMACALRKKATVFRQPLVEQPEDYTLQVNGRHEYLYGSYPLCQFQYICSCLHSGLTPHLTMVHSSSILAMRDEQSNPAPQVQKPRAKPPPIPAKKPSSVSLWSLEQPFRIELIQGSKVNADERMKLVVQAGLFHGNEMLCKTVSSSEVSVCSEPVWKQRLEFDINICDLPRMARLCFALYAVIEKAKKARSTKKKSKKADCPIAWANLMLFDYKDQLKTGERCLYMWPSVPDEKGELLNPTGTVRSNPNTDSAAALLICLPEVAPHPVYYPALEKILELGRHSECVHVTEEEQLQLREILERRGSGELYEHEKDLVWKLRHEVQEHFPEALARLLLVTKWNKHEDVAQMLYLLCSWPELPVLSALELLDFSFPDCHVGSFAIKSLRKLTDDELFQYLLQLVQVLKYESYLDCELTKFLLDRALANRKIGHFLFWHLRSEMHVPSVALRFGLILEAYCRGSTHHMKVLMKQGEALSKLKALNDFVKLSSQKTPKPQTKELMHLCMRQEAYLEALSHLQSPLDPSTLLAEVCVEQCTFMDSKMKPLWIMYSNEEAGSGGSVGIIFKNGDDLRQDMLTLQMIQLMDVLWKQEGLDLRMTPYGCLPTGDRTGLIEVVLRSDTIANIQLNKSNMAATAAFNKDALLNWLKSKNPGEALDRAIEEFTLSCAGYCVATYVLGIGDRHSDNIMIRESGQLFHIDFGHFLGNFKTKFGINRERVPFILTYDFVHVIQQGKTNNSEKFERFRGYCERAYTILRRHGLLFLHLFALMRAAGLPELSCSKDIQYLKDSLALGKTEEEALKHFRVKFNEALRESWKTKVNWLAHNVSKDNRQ

As for `Cn1cc(-c2nc(N3CCOCC3)c3sc(CN4CCN(CC5CC5)CC4)cc3n2)c2cc[nH]c2c1=O`, the values for the inhibition in experiment [1] and in experiment [6] were 58.2% and 19.5%, respectively. Besides, the IC50 turned out to be 220 nM in the experiment with SUD4 [2], 7.8 nM in experiment [3], 53 nM in the experiment on SU-DHL-6 [4] and 464 nM in experiment [5].
With `Cn1cc(-c2nc(N3CCOCC3)c3sc(CN4CCN(C(=O)C(C)(C)O)CC4)cc3n2)c2cc[nH]c2c1=O`, the inhibition was found to be 32.6% in experiment [1] and 20.1% in experiment [6].
As for `Cn1ccc(-c2nc(N3CCOCC3)c3sc(CN4CCN(CC5CC5)CC4)cc3n2)cc1=O`, the inhibition in experiment [1] worked out at 4.6%; in experiment [6] it was 24.1%.
In the case of `Cn1cc(-c2nc(N3CCOCC3)c3sc(CN4CCN(C(=O)CN)CC4)cc3n2)c2cc[nH]c2c1=O`, the inhibition is 28.2% in experiment [1] and 16% in experiment [6].
With `Cc1c(-c2nc(N3CCOCC3)c3sc(CN4CCN(CC5CC5)CC4)cc3n2)cn(C)c(=O)c1N`, the inhibition worked out at 1.4% in experiment [1] and 6% in experiment [6].
As to `Cn1cc(-c2nc(N3CCOCC3)c3sc(CN4CCN(C(=O)CO)CC4)cc3n2)c2cc[nH]c2c1=O`, the inhibition came to 35.2% in experiment [1] and 28.8% in experiment [6].
Regarding `C[C@H](O)C(=O)N1CCN(Cc2cc3nc(-c4cn(C)c(=O)c5[nH]ccc45)nc(N4CCOCC4)c3s2)CC1`, the values for the inhibition in experiment [1] and in experiment [6] were 39.9% and 33.2%, respectively. Also, the half-maximal inhibitory concentration (IC50) came out at 11 nM in experiment [3] and 206 nM in experiment [5].
Consider `C[C@@H](O)C(=O)N1CCN(Cc2cc3nc(-c4cn(C)c(=O)c5[nH]ccc45)nc(N4CCOCC4)c3s2)CC1`, for which the inhibition in experiment [1] was determined as 38.2%; in experiment [6], 27.4%.
For `C[C@@H](N)C(=O)N1CCN(Cc2cc3nc(-c4cn(C)c(=O)c5[nH]ccc45)nc(N4CCOCC4)c3s2)CC1`, the figures for the inhibition in experiment [1] and in experiment [6] were 56.8% and 16.2%, respectively.
For `CCS(=O)(=O)Nc1ccc(Oc2ccc(F)cc2F)c(-c2cn(C)c(=O)c3[nH]ccc23)c1` [MIVEBRESIB], the half-maximal inhibitory concentration (IC50) came out at 41 nM with SUD4 [2]; 0.73 nM in experiment [3]; 23 nM in the experiment on SU-DHL-6 [4]; 10 nM with SU-DHL-6 [7]; 14 nM in the experiment on SUD4 [8].
On to `Cn1cc(-c2nc(N3CCOCC3)c3sc(CN4CCN(CC5CC5)CC4)cc3n2)ccc1=O`, for which the inhibition came out at 32.6% in experiment [1] and 25.7% in experiment [6].
